Values of other authors as cited in patent US20180187029A1, “COMPOSITION FOR FORMING HIGH RELEASE AND LOW FRICTION FUNCTIONAL COATINGS” (WHITFORD CORPORATION, priority 2015, published 2018).

Conditions: for Density / Vapor pressure / Viscosity: 20° C.; for Surface tension: 23° C.

| Density [g/Cm3] | Vapor pressure [kPa] | Viscosity [mPa · s] | Surface tension [mN/m] | SMILES |
| --- | --- | --- | --- | --- |
| 0.99 | 0.016 | 2.3 | 34.2 | COCCC(=O)N(C)C [3-methoxy-N,N-dimethylpropanamide] |
| 1.03 | 0.04 | 1.8 | 38.6 | CN1CCCC1=O [N-methyl-2-pyrrolidone] |
